Measured values taken from patent publication US4818684A, “Auto-anti-idiotypic monoclonal antibodies to steroid receptors and uses thereof” (The Trustees of Columbia University in the City of New York, priority 1985, dated 1989).

Tests used:
[1] = target: anti-steroid (unprocessed rabbit serum 540); test: Competitive inhibition of binding of [3H] triamcinolone to anti-steroid, unprocessed rabbit serum 540; settings: for Kd: read-out: Competitive inhibition of binding of [3H] triamcinolone, Rabbit Serum 540 Unprocessed (apparent Kd)
Procedure: FIG. 4. […] See legend to Table 1 for the experimental procedure.
New Zealand white rabbits were immunized by multiple intradermal injections of a total of 1 ml of triamcinolone-BSA (2 mg/ml) in saline emulsified with an equal volume of complete Freunds adjuvant. Booster injections were given three weeks later and then at monthly intervals. Animals were bled bi-weekly from the ear vein and the sera stored at 4° C. until required.

[2] = target: affinity purified antisteroid; test: Competitive inhibition of binding of [3H] triamcinolone to affinity purified antisteroid; set-up: species or system rabbit; settings: for Kd: read-out: Competitive inhibition of binding of [3H] triamcinolone, Affinity purified (apparent Kd)
Procedure: Thirty to 40 ml of serum obtained in part (a) of this example were passed slowly (±3.5 ml/hr) through the AH-Sepharose 4B triamcinolone column prepared according to (b) above. After washing with PBS to remove all unbound protein, the antibody was eluted with 0.2 M glycine pH 2.2 or 2.8. The eluate was dialyzed against 2 liters, 0.01 M PBS buffer pH 7.4 and the buffer changed at least 4 times before concentrating by vacuum dialysis at 4° C.
the glucocorticoid receptor, unprocessed rabbit serum 540, affinity
purified antisteroid and antisteroid Fab fragments. Assays with the […]

[3] = target: antisteroid Fab fragments; test: Competitive inhibition of binding of [3H] triamcinolone to antisteroid Fab fragments; settings: read-out: Competitive inhibition of binding of [3H] triamcinolone, Rabbit serum 541 Fab fragments (apparent Kd)
Procedure: To the dialysate was added 0.1 M dithiothreitol (DTT) (15 microliters) EDTA (2 mg) and 0.2 mg mercuripapain (5 microliters) and the solution was incubated overnight at 37° C. It was then dialyzed against 4 l distilled H2 O for 3 hrs and then against 1 liter of PBS for 2 hrs and then applied to a Sephadex G100 column (1×5×90 cms) and eluted (±5 ml/hr) with 0.01 M PBS pH 7.4. One ml fractions were collected. Fractions 53-79 were combined and examined at 280 nm for protein content. Undigested IgG and Fc fragments were removed by passage through a protein A Sepharose column (5 ml bed volume); unbound Fab was eluted with 0.01 M PBS pH 7.4. The eluate was concentrated by vacuum dialysis.

[4] = system: binding of 8G11-C6 to anti-steroid Fab fragments; test: ELISA inhibition of binding of 8G11-C6 to anti-steroid Fab fragments; settings: ELISA (FIGS. 7, 8, 9)
Procedure: Controls with no inhibitor were included.
FIG. 9. […] The method used was similar to that described in the exerimental procedure. […] 200λ of the incubation mixture was then added to microtiter wells previously coated with 10 ng anti-steroid Fab fragments and incubated for 2 hrs at 37° C.
The presence of anti-idiotypic antibodies in the hybridoma culture medium were assayed by a double antibody sandwich ELISA. […] After washing twice with 0.01 M phosphate buffer--0.14M NaCl, pH 7.4, containing 0.05% Tween-20 (PBS-Tween), the culture medium from the hybridomas was added and incubated at 37° C. for 2 hrs. The wells were washed three times with PBS-Tween and 200 microliters of 1:3,000 dilution in PBS-Tween of goat anti-mouse 1gM-1gG horseradish peroxidase (Tago) was added. After incubating 1 hr at 37°, the wells were washed three times with PBS-tween and 200 microliters substrate (7 mg o-phenylenediamine dichloride in 10 ml 0.1 M citrate-phosphate buffer, pH 4.8 containing 5 microliters of 30% H2 O2) was added. Depending on the intensity of the color, the reaction was stopped after 5-10 min by the addition of 50 microliters 8N H2 SO4 and the OD determined (Titretek) at 492 nm.

[5] = target: T1, glucocorticoid receptor (Rattus norvegicus, UniProt P06536)
T1 sequence (P06536 1-795): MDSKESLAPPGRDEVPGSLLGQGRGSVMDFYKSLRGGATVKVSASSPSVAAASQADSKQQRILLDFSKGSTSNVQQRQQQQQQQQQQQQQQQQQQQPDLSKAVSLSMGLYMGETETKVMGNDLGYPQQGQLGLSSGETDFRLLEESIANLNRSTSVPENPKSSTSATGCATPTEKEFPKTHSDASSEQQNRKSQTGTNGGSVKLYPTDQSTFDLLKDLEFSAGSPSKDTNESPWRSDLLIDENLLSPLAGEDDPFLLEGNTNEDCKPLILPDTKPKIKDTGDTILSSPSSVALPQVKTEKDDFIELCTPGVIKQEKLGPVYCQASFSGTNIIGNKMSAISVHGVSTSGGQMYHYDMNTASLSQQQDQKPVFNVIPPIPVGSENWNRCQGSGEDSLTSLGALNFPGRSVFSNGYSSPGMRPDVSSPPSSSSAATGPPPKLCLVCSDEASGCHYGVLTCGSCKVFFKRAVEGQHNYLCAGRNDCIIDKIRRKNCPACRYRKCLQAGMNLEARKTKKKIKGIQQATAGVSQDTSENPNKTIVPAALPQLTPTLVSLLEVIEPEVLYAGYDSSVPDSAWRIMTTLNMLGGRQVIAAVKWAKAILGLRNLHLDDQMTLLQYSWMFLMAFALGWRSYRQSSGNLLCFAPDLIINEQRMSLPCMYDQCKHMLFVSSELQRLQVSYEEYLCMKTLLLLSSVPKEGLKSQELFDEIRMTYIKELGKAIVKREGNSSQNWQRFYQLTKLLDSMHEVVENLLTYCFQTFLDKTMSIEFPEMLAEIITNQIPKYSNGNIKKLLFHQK
Procedure: Incubate in a total volume of 500 microliters, for 2 hrs at 4° C. 20 mM HEPES buffer containing 50 mM NaCl, 1 mM EDTA, 10% glycerol 0.1 mM DTT pH 7.6, 10nM [3H]TA and 200 microliters rat liver cytosol. Add 250 microliters 5% charcoal/dextran solution and after 10 min centrifuge and determine the radioactivity in 200 λaliquot.
Four to 6 days after 150-200 g Sprague-Dawley male rats were adrenalectomized, they were anesthesized with ether and the livers perfused in situ through the portal vein with 50 ml of cold saline. The livers were then removed, homogenized with a Teflon-glass homogenizer in 1.1 volume of 10 mM HEPES, containing 50 mM NaCl, 1 mM Na2 EDTA, 1 mM dithiothreitol (DTT) and 10% glycerol, pH 7.6, and centrifuged for 1 hr at 250,000 g at 4° C. The upper fatty layer was discarded. The supernatant was either frozen immediately in liquid-nitrogen and used for assays or labeled by incubating with 75 nM [^3 H]triamcinolone acetonide for 2 hrs at 4° C. Unbound steroid was removed with 5% dextran-coated charcoal. The [^3 H]TA labeled glucocorticoid receptor was partially purified by the method described by Gametchu & Harrison (9), the only modification being that the phosphocellulose was omitted from the first purification step.
glucocorticoid receptor included 100 ml of rat liver cytosol. 10^-8 M
[^3 H]TA and increasing concentrations of steroid in a total volume o
200 ml. […]

[6] = target: T2, binding of 8G11-C6 to partially purified glucocorticoid receptor (Rattus norvegicus, UniProt P06536); test: ELISA inhibition of binding of 8G11-C6 to partially purified glucocorticoid receptor; settings: ELISA (FIG. 11)
T2 construct: the glucocorticoid receptor was partially purified from rat liver cytosol; from tissue; host or cells: liver cytosol of Sprague-Dawley rats, receptor partially purified by the cited method of Gametchu & Harrison
T2 sequence (P06536 1-795): T1 sequence (P06536 1-795)
Procedure: FIG. 11. […] 200 microliters containing 0.54 micrograms protein of a partially purified receptor preparation in 0.1M NaHC03 pH 9.3 was added to the wells of polystyrene plates. These were incubated for 2 hrs at 37° C. Washed 2×with PBS […] 0.02% tween. […] See methods for the methodology employed. The inhibitors used were triamcinolone acetonide ( ), rabbit serum albumin ( ), and triamcinolone - RSA ( ).

[7] = target: Fab fragments of affinity purified anti-steroid antibodies; test: Scatchard plot of binding of labeled steroid to Fab fragments of affinity purified anti-steroid antibodies; set-up: species or system rabbit; settings: curved plot with [3H]TA, linear plot with [3H]-dexamethasone; read-out: Kd for Fab fragments of the anti-steroid, from Scatchard plots
Procedure: FIG. 3. Scatchard plot of the binding of [^3 H] triamcinolone to Fab fragments of affinity purified anti-steroid antibodies. Fab fragments (0.227 micrograms) were incubated with increasing concentrations of [^3 H] triamcinolone (0.4-62.5nM) in the presence of 0.01M phosphate buffered saline pH 7.4 containing 0.1% gelatin in a total volume of 200 microliters. Total and non-specific binding (50 micromoles triamcinolone acetonide) were determined for each of the [^3 H] triamcinolone levels and all points were in duplicate. After incubating 1 hr at room temperature, add 1 ml cold 5% charcoal/dextran (diluted 1:40 in 0.01M PBS containing 0.1% gelatin) and let stand on ice for 10 min. Centrifuge down the charcoal/dextran, decant the supernatant into scintillation vials and determine the radioactivity.

Row | Compound | Kd [1] [µM] | Kd [2] [µM] | Kd [3] [µM] | effect on the binding of 8G11-C6 to anti-steroid Fab fragments [4] | also measured
1 | C[C@]12CCC(=O)C=C1CC[C@@H]1[C@@H]2[C@@H](O)C[C@@]2(C)[C@H]1CC[C@]2(O)C(=O)CO [Hydrocortisone] | 5 | 100 | 100 |  | 
2 | triamcinolone | 0.0032 | 0.015 | 0.015 | Neither triamcinolone, nor other steroids such as testosterone and estradiol-17β had any effect | Kd [5]: 0.005 µM
3 | C[C@]12C[C@H](O)[C@H]3[C@@H](CCC4=CC(=O)CC[C@@]43C)[C@@H]1CC[C@@H]2C(=O)CO [Corticosterone] | 630 | 100 | 100 |  | 
4 | C[C@]12CC[C@@H]3c4ccc(O)cc4CC[C@H]3[C@@H]1CC[C@@H]2O [estradiol-17β] |  |  |  | Neither triamcinolone, nor other steroids such as testosterone and estradiol-17β had any effect | effect on the binding of 8G11-C6 to partially purified glucocorticoid receptor [6]: no effect
5 | C[C@]12CC[C@H]3[C@@H](CCC4=CC(=O)CC[C@@]43C)[C@@H]1CC[C@@H]2O [Testosterone] |  |  |  | Neither triamcinolone, nor other steroids such as testosterone and estradiol-17β had any effect | Competitive inhibition of binding of [3H] triamcinolone, Rabbit Serum 540 Unprocessed (apparent Kd) [1]: not inhibited; Competitive inhibition of binding of [3H] triamcinolone, Affinity purified (apparent Kd) [2]: not inhibited; effect on the binding of 8G11-C6 to partially purified glucocorticoid receptor [6]: only a slight inhibitory effect
6 | rabbit serum albumin: carrier protein tested alone as inhibitor |  |  |  | did not affect | 
7 | C[C@]12CCC(=O)C[C@@H]1CC[C@@H]1[C@@H]2CC[C@]2(C)[C@@H](O)CC[C@@H]12 [Dihydrotestosterone] |  |  |  |  | Competitive inhibition of binding of [3H] triamcinolone, Rabbit Serum 540 Unprocessed (apparent Kd) [1]: had no effect
8 | CC1(C)O[C@@H]2C[C@H]3[C@@H]4CCC5=CC(=O)C=C[C@]5(C)[C@@]4(F)[C@@H](O)C[C@]3(C)[C@]2(C(=O)CO)O1 [triamcinolone acetonide] |  |  |  | did not affect | 
9 | C[C@@H]1C[C@H]2[C@@H]3CCC4=CC(=O)C=C[C@]4(C)[C@@]3(F)[C@@H](O)C[C@]2(C)[C@@]1(O)C(=O)CO [Dexamethasone] | 0.12 | 0.62 | 0.63 |  | 
10 | [3H]C1C2=CC(=O)C=C[C@]2(C)[C@@]2(F)[C@@H](O)C[C@@]3(C)[C@@H](C[C@@H](C)[C@]3(O)C(=O)CO)[C@@H]2C1[3H] (stereo partly drawn) [[^3 H]-dexamethasone, 6,7[^3 H] dexamethasone] |  |  |  |  | Kd [7]: 0.15 µM
11 | CC(=O)[C@H]1CC[C@H]2[C@@H]3CCC4=CC(=O)CC[C@]4(C)[C@H]3CC[C@]12C [Progesterone] | 100 | 100 | 100 |  | 
